{"source": "patent US20130089562A1", "about": "“METHODS OF TREATING LIVER CONDITIONS USING NOTCH2 ANTAGONISTS” (priority 2011, published 2013)", "key": {"[1]": {"test_system": "primary oval cells (liver progenitor cells)", "test": "Colony formation and proliferation of primary oval cell cultures on Sw-3T3 feeder fibroblasts", "assay_type": "cell-based, mouse", "procedure": "To identify the signals that regulate hepatocyte differentiation from liver progenitor cells, transcriptional profiling was performed on adult liver progenitors (oval cells) from mice fed a choline deficient, ethionine supplemented (CDE) diet (FIG. 1A; FIG. 5A). This CDE model is known in the art as a model of chronic liver disease. CDE is also a steatohepatitis model (NASH). Chronic CDE can also lead to hepatocellular carcinoma (HCC), thereby also serving as a model for HCC. To induce an oval cell response, 8-12 week-old female C57BL/6N mice (Charles River) were fed a choline deficient diet (20% Lard; Teklad TD.04523) supplemented with 0.15% (w/v) Ethionine in the drinking water (Akhurst et al., Hepatology 34(3):519 (2001)). Liver non-parenchymal cells were isolated according to the protocol of del Castillo (del Castillo et al., Am. J. Pathol., 172(5):1238 (2008)) with the addition of 0.04% Hyaluronidase (Sigma) to the in vitro dissociation step.\nTo elucidate the role of Notch signaling in liver regeneration, an in vitro culture system was developed. Cell cultures were established by culturing primary oval cells on Sw-3T3 fibroblasts (ATCC), arrested with Mitomycin C (Sigma), in High Glucose Dulbecco's Modified Eagle Medium (DMEM; Invitrogen) supplemented with 15% Fetal Calf Serum (Sigma), non-essential amino acids (Invitrogen), Glutamax (Invitrogen), and ITS (Invitrogen)."}, "[2]": {"test_system": "Notch2 intracellular domain (ICD)", "test": "Notch2 signaling in cultured oval cells (Western blot for γ-secretase cleaved Notch2 ICD; Hes1 expression)", "assay_type": "cell-based, mouse", "conditions": "FIG. 2H", "source_text": "The anti-activated Notch2 antibody (clone 40-2-7) was generated against the peptide VIMAKRKRKHGSLW, corresponding to amino acids 1697-1710 of the human Notch2 protein sequence (SEQ ID NO:73), coupled to KLH (YenZym Custom Antibodies, LLC). Splenocytes from a rabbit producing an antibody with the appropriate specificity were used to generate hybridomas (Epitomics, Inc.). Clone 40-2-7 was identified by screening the resulting rabbit monoclonal antibodies by immunoblotting and immunohistochemistry. This antibody recognizes both human (FIG. 7B, left panel) and mouse (FIG. 7B, right panel) active Notch2 at endogenous levels.\nProgenitors cultured in the culture system maintained growth (FIG. 2A) and formed colonies consisting of small, tightly packed cells with a high nuclear-cytoplasmic ratio and a distinct raised edge (FIG. 2A, left panel). The cells within these colonies were uniformly EpCAM positive (FIG. 2A, right panel). […] Activated Notch2 was detected by Western blot analysis using a rabbit monoclonal antibody raised against the S3 cleaved form of the human Notch2 protein (FIG. 7B). […]\nNotch2 signaling was active in cultured oval cells, as transcriptionally active Notch2 intracellular domain (ICD) could be detected using an antibody specific to the γ-secretase cleaved form of this receptor (FIG. 2H). […]"}}, "data": [{"smiles": "C[C@H](NC(=O)Cc1cc(F)cc(F)c1)C(=O)N[C@H](C(=O)OC(C)(C)C)c1ccccc1", "note": "[DAPT, N—[N-(3,5-difluorophenacetyl)-1-alanyl]-S-phenylglycine t-butyl ester]", "values": [{"measurement": "progenitor cell proliferation", "setting": "[1]; FIG. 2D", "value": "small increase"}, {"measurement": "enhancement of colony formation", "setting": "[1]; primary cultures treated with DAPT, FIG. 2B", "value": "approximately ten-fold"}, {"measurement": "appearance of γ-secretase cleaved (active) form of Notch2", "setting": "[2]", "value": "absent"}]}]}
